Test results from ChEMBL document CHEMBL1141307, “Antimalarial benzoquinones from an endophytic fungus, Xylaria sp” (J Nat Prod, 2007).
The source made the active and inactive calls. The calls are words filed in the database; no cut-off is given here.

Tests used:
Plasmodium falciparum = experiment: Antimalarial activity against multidrug-resistant Plasmodium falciparum K1 by microculture radioisotope assay; format: functional, organism-based
Vero = experiment: Cytotoxicity against African green monkey Vero cells after 72 hrs; format: cell-based; conditions: Chlorocebus sabaeus

| Compound | IC50 (Plasmodium falciparum) [µM] | IC50 (Vero) [µM] | Activity (Plasmodium falciparum) | Activity (Vero) |
| --- | --- | --- | --- | --- |
| C[C@H]1[C@@H](O)O[C@@H]2O[C@@]3(C)CC[C@H]4[C@H](C)CC[C@@H]1[C@@]24OO3 [ARTENIMOL] | 0.0033 | – | – | – |
| COC1=CC(=O)C(Cl)=C(C)C1=O | 1.84 | 1.35 | – | – |
| COc1cc2c3c(oc2c(C)c1O)C(=O)C(C)=CC3=O [XYLARIAQUINONE A] | 6.68 | > 184 | – | – |
| COC1=CC(=O)C(O)=C(C)C1=O | – | – | inactive | Not Active |
| Cc1c2ccncc2c(C)c2c1[nH]c1ccccc12 [ELLIPTECINE] | – | 2.03 | – | – |
| C[C@H]1OC(=O)c2c(O)cccc2C1O (stereo not given in full) | – | – | inactive | Not Active |
